The subject of this experiment is GLXMA (Soybean). Kind of experiment: Postemergence herbicidal evaluation. Conditions: for GLXMA herbicidal rating: postemergence. It counts as in vivo, Glycine max, (L.) Merr. On the procedure: In the tests, seedling plants are grown in jiffy flats for about two weeks. The test compounds are dispersed in 50/50 acetone/water mixtures containing 0.5% TWEEN® 20, a polyoxyethylene sorbitan monolaurate surfactant of Atlas Chemical Industries, in sufficient quantities to provide the equivalent of about 0.0040 kg to 1.000 kg per hectare of active compound when applied to the plants through a spray nozzle operating at 40 psi for a predetermined time. After spraying, the plants are placed on greenhouse benches and are cared for in accordance with conventional greenhouse procedures. From four to five weeks after treatment, the seedling plants are examined and rated according to the rating system set forth below. Where more than one test is involved for a given compound, the data are averaged.
Results of herbicide evaluation are expressed on a rating scale (0-9). The scale is based upon a visual observation of plant stand, vigor, malformation, size, chlorosis and overall plant appearance as compared with a control.

This is an account of results in patent publication US6706663B2, “Herbicidal 3-heterocyclic substituted benzisothiazole and benzisoxazole compounds” (Wyeth, priority 2000, dated 2004).

On to `Cc1ccsc1-c1nsc2ccc(-n3c(=O)cc(C(F)(F)F)n(C)c3=O)cc12` [Compound 4, 1-methyl-3-[3-(3-methyl-2-thienyl)-1,2-benzisothiazol-5-yl]-6-(trifluoromethyl)uracil], for which, for the setting “rate 0.0320 kg/ha”, the “Postemergence herbicidal rating, GLXMA” value came out at 9.0. For the molecule `Cn1c(C(F)(F)F)cc(=O)n(-c2cc3c(C4OCCO4)nsc3cc2F)c1=O` [Compound 61, 3-[3-(1,3-dioxolan-2-yl)-6-fluoro-1,2-benzisothiazol-5-yl]-1-methyl-6-(trifluoromethyl)uracil], the GLXMA herbicidal rating is reported as 8.5 (rate 0.0320 kg/ha) and 8.5 (rate 0.0620 kg/ha).
